The values that follow come from patent publication US20040175691A1, “Use of the KCNQ2 and KCNQ3 genes for the discovery of agents useful in the treatment of neurological disorders” (priority 1998, published 2004).

Broadly, the IC50 is the concentration that inhibits the measured activity by half.

For one experiment, the target named is T1, KCNQ2 + KCNQ3 (UniProt O43526+O88944, DEL417-446).
T1 construct: Full-length KCNQ2 cDNAs were amplified from adult human brain cDNA; Multiple full-length cDNA clones were amplified in independent PCR reactions from rat SCG cDNA; expressed in transfected cells; host or cells: Xenopus oocytes injected with cRNA
Description: Blockade of KCNQ2+KCNQ3 channels expressed in Xenopus oocytes. The class given is cell-based, human KCNQ2, rat KCNQ3. The settings on record: mean±s.e.m. As for the experimental part: (§1) Method: Full-length KCNQ2 cDNAs were amplified from adult human brain cDNA using the following primers ([…], […]) with the Expand Fidelity enzyme mixture (Boehringer Mannheim, Indianapolis). […] This region is also alternatively spliced in the KCNQ2 cDNA clone described by Biervert et al. (1998). Preparation, injection of cRNA and recording from oocytes was performed at room temperature as described previously (Dixon et al. 1996). The standard extracellular recording solution contained: 82 mM NaCl, 2 mM KCl, 1.8 mM CaCl2, 1 mM MgCl2, and 5 mM Na-HEPES (pH 7.6). Data collection and analysis were performed using pClamp software (Axon Instruments, Foster City, Calif.).
Holding potential was −60 mV and the cell was repetitively depolarized to −30 mV for 1 minute to reach steady-state blockade. Tail currents were recorded at −50 mV.
IC50 values are all expressed in μM, mean±s.e.m. In cases where the IC50 values were greater than 100 μM the exact value is not reported due to limited solubility in the drug.

The target in the next experiment is T2, erg3 (Rattus norvegicus, UniProt O54852).
T2 construct: expressed in transfected cells; host or cells: oocytes (Xenopus)
T2 sequence (O54852 1-1195): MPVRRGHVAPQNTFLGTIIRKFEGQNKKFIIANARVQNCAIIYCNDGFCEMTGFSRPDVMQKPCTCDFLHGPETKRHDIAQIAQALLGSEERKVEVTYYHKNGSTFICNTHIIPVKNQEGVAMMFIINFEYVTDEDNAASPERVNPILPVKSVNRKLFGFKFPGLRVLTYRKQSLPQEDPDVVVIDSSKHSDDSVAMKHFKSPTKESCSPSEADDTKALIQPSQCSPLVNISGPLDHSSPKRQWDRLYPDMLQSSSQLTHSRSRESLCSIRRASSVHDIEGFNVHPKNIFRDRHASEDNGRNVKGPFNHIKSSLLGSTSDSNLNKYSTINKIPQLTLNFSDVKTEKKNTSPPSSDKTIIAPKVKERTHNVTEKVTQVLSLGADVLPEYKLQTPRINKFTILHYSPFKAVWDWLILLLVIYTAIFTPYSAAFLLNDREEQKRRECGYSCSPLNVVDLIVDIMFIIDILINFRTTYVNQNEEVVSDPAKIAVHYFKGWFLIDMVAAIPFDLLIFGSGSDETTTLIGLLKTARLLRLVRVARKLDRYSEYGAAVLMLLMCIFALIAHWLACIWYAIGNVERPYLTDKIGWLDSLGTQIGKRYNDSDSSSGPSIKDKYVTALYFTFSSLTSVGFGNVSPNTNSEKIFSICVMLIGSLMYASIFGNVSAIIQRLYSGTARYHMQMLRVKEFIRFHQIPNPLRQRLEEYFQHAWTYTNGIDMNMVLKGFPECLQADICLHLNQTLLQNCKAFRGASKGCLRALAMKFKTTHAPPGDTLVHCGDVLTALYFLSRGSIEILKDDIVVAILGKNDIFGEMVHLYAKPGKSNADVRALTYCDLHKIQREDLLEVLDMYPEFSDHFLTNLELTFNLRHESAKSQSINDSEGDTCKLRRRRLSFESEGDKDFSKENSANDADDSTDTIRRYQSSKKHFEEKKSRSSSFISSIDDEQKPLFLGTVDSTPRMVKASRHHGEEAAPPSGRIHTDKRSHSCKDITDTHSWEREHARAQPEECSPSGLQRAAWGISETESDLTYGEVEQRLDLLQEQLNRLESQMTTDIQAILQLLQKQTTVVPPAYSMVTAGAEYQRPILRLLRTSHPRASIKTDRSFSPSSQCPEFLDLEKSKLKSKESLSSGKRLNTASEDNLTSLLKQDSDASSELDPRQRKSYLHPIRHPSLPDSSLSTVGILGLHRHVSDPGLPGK
Description: Blockade of cloned erg3 channel in oocytes. The class given is cell-based. The settings on record: mean±s.e.m.

The target in another experiment is T3, Kv1.2 (Homo sapiens, UniProt P16389).
T3 construct: expressed in transfected cells; host or cells: oocytes (Xenopus)
Description: Blockade of cloned Kv1.2 channel in oocytes. The experiment is classed as cell-based. To be noted: mean±s.e.m.

A further experiment addresses T4, Kv4.3 (Homo sapiens, UniProt Q9UK17).
T4 construct: expressed in transfected cells; host or cells: oocytes (Xenopus)
T4 sequence (Q9UK17 1-655): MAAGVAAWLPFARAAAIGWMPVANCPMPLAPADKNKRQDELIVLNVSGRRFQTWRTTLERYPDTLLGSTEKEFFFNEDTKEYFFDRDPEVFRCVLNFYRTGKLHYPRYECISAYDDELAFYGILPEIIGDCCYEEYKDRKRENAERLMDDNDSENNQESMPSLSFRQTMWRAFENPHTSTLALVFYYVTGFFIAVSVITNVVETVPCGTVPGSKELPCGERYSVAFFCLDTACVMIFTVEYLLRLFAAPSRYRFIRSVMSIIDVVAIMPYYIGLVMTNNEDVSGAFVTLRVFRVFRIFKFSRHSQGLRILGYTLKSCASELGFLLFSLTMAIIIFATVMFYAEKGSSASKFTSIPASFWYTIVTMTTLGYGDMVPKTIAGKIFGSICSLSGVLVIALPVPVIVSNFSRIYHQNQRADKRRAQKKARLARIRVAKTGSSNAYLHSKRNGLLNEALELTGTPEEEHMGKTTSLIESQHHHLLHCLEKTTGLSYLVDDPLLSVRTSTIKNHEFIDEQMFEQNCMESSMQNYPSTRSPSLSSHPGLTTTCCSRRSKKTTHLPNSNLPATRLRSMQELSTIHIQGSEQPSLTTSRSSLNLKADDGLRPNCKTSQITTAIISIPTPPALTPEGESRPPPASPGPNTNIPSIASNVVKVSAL
In words: Blockade of cloned Kv4.3 channel in oocytes. The experiment is classed as cell-based. The settings on record: mean±s.e.m.

Another experiment concerns the target KCNQ2 (Homo sapiens, UniProt O43526, DEL417-446). In words: Blockade of KCNQ2 channels expressed in Xenopus oocytes. The experiment is classed as cell-based. Details: Full-length KCNQ2 cDNAs were amplified from adult human brain cDNA; expressed in transfected cells; host or cells: Xenopus oocytes injected with cRNA. To be noted: oocytes; mean±s.e.m. As for the experimental part:
as §1
IC50 values are all expressed in μM, mean±s.e.m.

Structures are written as SMILES.

T3 sequence (P16389 whole entry): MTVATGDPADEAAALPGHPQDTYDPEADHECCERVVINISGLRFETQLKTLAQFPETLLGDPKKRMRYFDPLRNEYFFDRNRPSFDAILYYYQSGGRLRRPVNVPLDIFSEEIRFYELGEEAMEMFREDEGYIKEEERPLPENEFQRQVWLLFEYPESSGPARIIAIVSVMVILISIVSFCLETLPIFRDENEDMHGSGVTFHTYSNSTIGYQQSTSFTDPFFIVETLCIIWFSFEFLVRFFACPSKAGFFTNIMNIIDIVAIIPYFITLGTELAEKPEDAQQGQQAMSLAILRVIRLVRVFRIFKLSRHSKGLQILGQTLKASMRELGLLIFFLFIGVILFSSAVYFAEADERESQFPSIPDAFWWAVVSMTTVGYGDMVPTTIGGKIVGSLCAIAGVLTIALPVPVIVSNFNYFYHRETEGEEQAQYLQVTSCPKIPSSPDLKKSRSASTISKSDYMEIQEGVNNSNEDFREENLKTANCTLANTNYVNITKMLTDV

For `O=C1N(c2ccccc2)c2ccccc2C1(Cc1ccncc1)Cc1ccncc1` [Linopirdine, 3,3-bis(4-pyridinylmethyl)-1-phenylindolin-2-one], the IC50 amounted to 4 ± 0.5 µM at KCNQ2 + KCNQ3; 85 ± 5 µM against erg3; 68 ± 6 µM on Kv1.2; 86 ± 14 µM against Kv4.3; 4.8 ± 0.6 µM at KCNQ2.
The matching figures for `O=C1c2ccccc2C(Cc2ccncc2)(Cc2ccncc2)c2ccccc21` [XE991, 10,10-bis(4-pyridinylmethyl)-9(10H)-anthracenone]: 0.6 ± 0.1 µM, greater than 100 µM, greater than 100 µM, 43 ± 7 µM and 0.71 ± 0.07 µM.
